Measurements from patent US6046228A, “Anti-viral pharmaceutical compositions containing saturated 1,2-dithiaheterocyclic compounds and uses thereof” (priority 1999, dated 2000).
Like-named read-outs stand apart in the source and are kept apart here.

Experiments:
HIV-1RF = test: XTT cytoprotection (cytopathicity) anti-HIV assay, CEM-SS cells; type: cell-based
Protocol: Initial anti-HIV screening was performed with CEM-SS cells and HIV-1RFusing the XTT cytoprotection assay as previously described (Weislow et al., J. National Cancer Inst. 81: 577-586, (1989)). HIV-1 isolates included common laboratory stains (RF, IIIB and MN), as well as a panel of HIV-1 clinical isolates (Cushman et al., J. Med. Chem. 37: 3040-3050, (1994)). The pyridone-resistant HIV-1A17 isolate (Nunberg et al., J. Virol., 65: 4887-4892 (1991)) was obtained from Emilio Emini at Merck Sharpe and Dohme Laboratories. Phytohemagglutinin-stimulated human peripheral blood lymphocytes (PBLs) and fresh monocyte-macrophage (Mono/MF) cultures were prepared and utilized in antiviral assays as previously described (Rice et al., Proc. Nat'l. Academy Science, USA 90: 9721-9724, (1993)); (Cushman et al., J. Med. Chem. 37: 3040-3050, (1994)). EC50 values for these cultures indicate the drug concentration that provided a 50% reduction in viral p24 production. […] The compounds can be synthesized according to the teachings of Singh et al., Sulfur Letters 8: 107-114, (1988). […] MT-2, MT-4, U1, HeLa-CD4-LTR-β-gal and 174xCEM cells were obtained from the AIDS Research and Reference Program (National Institute of Allergy and Infectious Disease, National Institutes of Health, Bethesda, Md. USA), as were the HIV-2MS and the AZT-resistant HIV-1G910-6 isolates.
Racemate and enantiomers of the cis-1,1-dioxo[1,2]dithiane-4,5-diol were synthesized and evaluated for antiviral activity in the XTT assay as described hereinabove.

HIV-1ADA = test: antiviral assay in monocyte-macrophage cultures (p24); type: cell-based; conditions: Human immunodeficiency virus 1
Protocol: Initial anti-HIV screening was performed with CEM-SS cells and HIV-1RFusing the XTT cytoprotection assay as previously described (Weislow et al., J. National Cancer Inst. 81: 577-586, (1989)). HIV-1 isolates included common laboratory stains (RF, IIIB and MN), as well as a panel of HIV-1 clinical isolates (Cushman et al., J. Med. Chem. 37: 3040-3050, (1994)). The pyridone-resistant HIV-1A17 isolate (Nunberg et al., J. Virol., 65: 4887-4892 (1991)) was obtained from Emilio Emini at Merck Sharpe and Dohme Laboratories. Phytohemagglutinin-stimulated human peripheral blood lymphocytes (PBLs) and fresh monocyte-macrophage (Mono/MF) cultures were prepared and utilized in antiviral assays as previously described (Rice et al., Proc. Nat'l. Academy Science, USA 90: 9721-9724, (1993)); (Cushman et al., J. Med. Chem. 37: 3040-3050, (1994)). EC50 values for these cultures indicate the drug concentration that provided a 50% reduction in viral p24 production. […] The compounds can be synthesized according to the teachings of Singh et al., Sulfur Letters 8: 107-114, (1988). The 4,5-cis-dihydroxy(1,1-dioxy-1,2,-dithiohexane) compound (NSC 624151) has been abbreviated as 624151 for convenience. MT-2, MT-4, U1, HeLa-CD4-LTR-β-gal and 174xCEM cells were obtained from the AIDS Research and Reference Program (National Institute of Allergy and Infectious Disease, National Institutes of Health, Bethesda, Md. USA), as were the HIV-2MS and the AZT-resistant HIV-1G910-6 isolates. […]

HIV-1 Clade A = test: XTT cytopathicity assay, HIV-1 clade; type: cell-based; conditions: CEM-SS
Protocol: (§1) Initial anti-HIV screening was performed with CEM-SS cells and HIV-1RFusing the XTT cytoprotection assay as previously described (Weislow et al., J. National Cancer Inst. 81: 577-586, (1989)). HIV-1 isolates included common laboratory stains (RF, IIIB and MN), as well as a panel of HIV-1 clinical isolates (Cushman et al., J. Med. Chem. 37: 3040-3050, (1994)). The pyridone-resistant HIV-1A17 isolate (Nunberg et al., J. Virol., 65: 4887-4892 (1991)) was obtained from Emilio Emini at Merck Sharpe and Dohme Laboratories. Phytohemagglutinin-stimulated human peripheral blood lymphocytes (PBLs) and fresh monocyte-macrophage (Mono/MF) cultures were prepared and utilized in antiviral assays as previously described (Rice et al., Proc. Nat'l. Academy Science, USA 90: 9721-9724, (1993)); (Cushman et al., J. Med. Chem. 37: 3040-3050, (1994)). EC50 values for these cultures indicate the drug concentration that provided a 50% reduction in viral p24 production. […] The compounds can be synthesized according to the teachings of Singh et al., Sulfur Letters 8: 107-114, (1988). The 4,5-cis-dihydroxy(1,1-dioxy-1,2,-dithiohexane) compound (NSC 624151) has been abbreviated as 624151 for convenience. MT-2, MT-4, U1, HeLa-CD4-LTR-β-gal and 174xCEM cells were obtained from the AIDS Research and Reference Program (National Institute of Allergy and Infectious Disease, National Institutes of Health, Bethesda, Md. USA), as were the HIV-2MS and the AZT-resistant HIV-1G910-6 isolates.
(§2) ^a Anti-HIV studies utilizing lymphocytederived cell lines were
(§3) performed using the XTT cytopathicity assay, while antiviral assays

HIV-1 Clade B = test: XTT cytopathicity assay, HIV-1 clade; type: cell-based; conditions: CEM-SS
Protocol: as §1, §2, §3

HIV-1 Clade C = test: XTT cytopathicity assay, HIV-1 clade; type: cell-based; conditions: CEM-SS
Protocol: as §1, §2, §3

HIV-1 Clade D = test: XTT cytopathicity assay, HIV-1 clade; type: cell-based; conditions: CEM-SS
Protocol: as §1, §2, §3

HIV-1 Clade F = test: XTT cytopathicity assay, HIV-1 clade; type: cell-based; conditions: CEM-SS
Protocol: as §1, §2, §3

HIV-1 integrase = target: T1, HIV-1 integrase (Human immunodeficiency virus type 1 group M subtype B, UniProt P04585); test: HIV-1 integrase activity; type: biochemical
T1 construct: the purified HIV-1 protease and integrase enzymes

O=S1(=O)C[C@H](O)[C@H](O)CS1 (relative stereo) [NSC 624151, cis-1,1-dioxo[1,2]dithiane-4,5-diol]
EC50 (HIV-1RF; Human immunodeficiency virus 1, CEM-SS, CEM-SS cells, HIV-1RF, read-out: XTT Assay EC50): 6.6 µM | EC50 (HIV-1RF; Human immunodeficiency virus 1, CEM-SS, CEM-SS, RF, Table 2, read-out: EC50): 6.6 µM | EC50 (HIV-1RF; Human immunodeficiency virus 1, CEM-SS, Table 5, read-out: EC50 Duplicates): 9.53 µM | EC50 (HIV-1RF; Human immunodeficiency virus 1, CEM-SS, Table 5, read-out: EC50 Mean): 12.2 µM | EC50 (HIV-1RF; Human immunodeficiency virus 1, CEM-SS, XTT cytopathicity assay, Table 4, read-out: Infection EC50 (Mean ± S.D., n = 6)): 7.85 ± 5.5 µM | EC50 (HIV-1RF; Table 5, read-out: EC50 Duplicates): 14.9 µM | EC50 relative to enantiomer or racemate (HIV-1RF; in words): the average of these EC50 s is equivalent to the EC50 for the racemic mixture | EC50 (HIV-1ADA; HIV-1ADA, monocyte/macrophage cultures, 50% reduction in p24, read-out: Mo/M.PHI. EC50): 8 µM | EC50 (HIV-1ADA; Mo/M.PHI., ADA, cell-free p24, Table 2, read-out: EC50): 2.1 µM | EC50 (HIV-1 Clade A): 22 µM | EC50 (HIV-1 Clade B): 5.5 µM | EC50 (HIV-1 Clade C): 2.9 µM | EC50 (HIV-1 Clade D): 20 µM | EC50 (HIV-1 Clade F): 69 µM | inhibition of HIV-1 integrase (HIV-1 integrase; in words): not inhibited | IC50 (HIV-1 integrase; read-out: Integrase ID50): > 100 µM
